In PubChem BioAssay (NCI):
Values joined by “and” are separate entries in the source; they are usually repeats but may differ in a detail not shown here. Equal entries are not always repeated.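 Grown in 96-well plates, cells were treated for 48 hours with each compound at five concentrations. Insufficient inhibition: endpoint recorded as highest concentration tested. GI50 marks 50% less growth. TGI denotes the concentration required for complete inhibition of growth.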

Columns and labels:
Test in all cases: NCI-60 cell line screen, 48 h
[1] = tested on: A549 NSCLC
[2] = tested on: EKVX NSCLC
[3] = tested on: HCC-2998 colon
[4] = tested on: HL-60(TB) leukemia
[5] = tested on: SF-268 CNS
[6] = tested on: SK-MEL-28 melanoma
[7] = tested on: UACC-257 melanoma
[8] = tested on: DU-145 prostate
[9] = tested on: PC-3 prostate
[10] = tested on: MDA-MB-231 breast

**Q.** What does the source list for N/C(=N\NS(=O)(=O)c1ccccc1)Oc1ccc(Br)cc1Br?
**A.** TGI [1]: > 100 µM; TGI [2]: > 100 µM; TGI [3]: > 100 µM; TGI [4]: > 100 µM; TGI [5]: > 100 µM; TGI [6]: > 100 µM; TGI [7]: > 100 µM

**Q.** What does the source list for C[Si](C)(C)C(CCCCSc1ccccc1)(Sc1ccccc1)Sc1ccccc1?
**A.** TGI [1]: > 100 µM; TGI [2]: > 100 µM; TGI [3]: > 100 µM; TGI [4]: > 100 µM; TGI [5]: > 100 µM; TGI [6]: > 100 µM; TGI [7]: > 100 µM

**Q.** For Cc1c(C(=O)/C=C/C=C/c2ccccc2)[n+](=O)c2ccccc2n1[O-], which TGI [1] is on record?
**A.** 82.3 µM

**Q.** What about the TGI [2] of the same compound?
**A.** > 100 µM

**Q.** What about the TGI [3] of the same compound?
**A.** 36.7 µM

**Q.** What about the TGI [4] of the same compound?
**A.** > 100 µM

**Q.** What about the TGI [5] of the same compound?
**A.** > 100 µM

**Q.** What about the TGI [6] of the same compound?
**A.** 54.6 µM

**Q.** And the TGI [7]?
**A.** 84.6 µM

**Q.** O=C(O)c1cc(=O)c2c([nH]c3ccccc32)s1 was tested. Which TGI [1] did it give?
**A.** > 100 µM

**Q.** And the TGI [2]?
**A.** > 100 µM

**Q.** And the TGI [3]?
**A.** > 100 µM

**Q.** What about the TGI [4] of the same compound?
**A.** > 100 µM

**Q.** What about the TGI [5] of the same compound?
**A.** > 100 µM

**Q.** What about the TGI [6] of the same compound?
**A.** > 100 µM

**Q.** And the TGI [7]?
**A.** > 100 µM

**Q.** How did the TGI [1] turn out when COC(=O)C1=C(CS(=O)c2ccc([N+](=O)[O-])cc2[N+](=O)[O-])C2C=CC1C2 (centres undefined) was run?
**A.** > 100 µM

**Q.** And the TGI [2]?
**A.** > 100 µM

**Q.** What about the TGI [3] of the same compound?
**A.** 95.3 µM

**Q.** And the TGI [4]?
**A.** 37.2 µM

**Q.** And the TGI [5]?
**A.** > 100 µM

**Q.** And the TGI [7]?
**A.** 92.2 µM

**Q.** Which results are given for O=C1OC(c2ccccc2)=N/C1=C\c1ccc(Oc2ccc(Cl)c(Cl)c2)cc1?
**A.** TGI [1]: > 100 µM; TGI [2]: > 100 µM; TGI [3]: > 100 µM; TGI [4]: 56.9 µM; TGI [5]: 57.6 µM; TGI [7]: > 100 µM

**Q.** Cc1cc(NC(=O)C2C3C=CC(O3)C2C(=O)O)no1 (centres undefined) was tested. Which TGI [1] did it give?
**A.** > 100 µM

**Q.** And the TGI [2]?
**A.** > 100 µM

**Q.** And the TGI [3]?
**A.** > 100 µM

**Q.** And the TGI [4]?
**A.** 40 µM

**Q.** What about the TGI [5] of the same compound?
**A.** 51.9 µM

**Q.** What about the TGI [6] of the same compound?
**A.** > 100 µM

**Q.** What about the TGI [7] of the same compound?
**A.** 64 µM

**Q.** What does the source list for NNc1cnn(-c2ccccc2)c(=O)c1Cl?
**A.** TGI [1]: > 100 µM; TGI [4]: > 100 µM; TGI [5]: > 100 µM; TGI [6]: > 100 µM; TGI [7]: > 100 µM

**Q.** How did the TGI [1] turn out when Cc1ccc(S(=O)(=O)N=NC=C2c3ccccc3N(O)c3ccccc32)cc1 was run?
**A.** 20 µM

**Q.** And the TGI [2]?
**A.** 40 µM

**Q.** And the TGI [3]?
**A.** 21.6 µM

**Q.** What about the TGI [4] of the same compound?
**A.** 4.62 µM

**Q.** What about the TGI [5] of the same compound?
**A.** 19.5 µM

**Q.** What about the TGI [6] of the same compound?
**A.** 14.5 µM

**Q.** What about the TGI [7] of the same compound?
**A.** 23.7 µM

**Q.** Which TGI [1] does the source give for NC(=O)c1cc(N(CCO)CCO)c([N+](=O)[O-])cc1[N+](=O)[O-] here?
**A.** > 100 µM

**Q.** And the TGI [8]?
**A.** > 100 µM

**Q.** And the TGI [2]?
**A.** > 100 µM

**Q.** And the TGI [3]?
**A.** > 100 µM

**Q.** And the TGI [4]?
**A.** > 100 µM

**Q.** What about the TGI [9] of the same compound?
**A.** > 100 µM

**Q.** And the TGI [5]?
**A.** > 100 µM

**Q.** What about the TGI [6] of the same compound?
**A.** > 100 µM

**Q.** And the TGI [7]?
**A.** > 100 µM

**Q.** What does the source list for O=C(C#Cc1ccccc1)N1c2ccccc2CC1c1c[nH]c2ccccc12 (centres undefined)?
**A.** TGI [1]: 49.1 µM; TGI [2]: 42.1 µM; TGI [3]: 31.3 µM; TGI [4]: 36.2 µM; TGI [6]: 30.5 µM; TGI [7]: 42 µM

**Q.** What does the source list for CSc1ncc(Br)c(Sc2nc(N)nc3nc[nH]c23)n1?
**A.** GI50 [1]: 9.77 µM; TGI [1]: 71.1 µM; GI50 [8]: 1.44 µM; TGI [8]: 23.9 µM; GI50 [2]: 3.07 µM; TGI [2]: 55.1 µM; GI50 [3]: 2.56 µM; TGI [3]: 16.2 µM; GI50 [4]: 4.34 µM; TGI [4]: 27.3 µM; GI50 [10]: 2.39 µM; TGI [10]: 58.3 µM; GI50 [5]: 3.6 µM; TGI [5]: 85.6 µM; GI50 [6]: 6.63 µM; TGI [6]: 53 µM; GI50 [7]: 3.23 µM; TGI [7]: 37.9 µM

**Q.** With CCOC(=O)CN(Cn1cncn1)Cn1cncn1 as the compound, how does the TGI [1] read?
**A.** > 100 µM

**Q.** What about the TGI [2] of the same compound?
**A.** > 100 µM

**Q.** What about the TGI [3] of the same compound?
**A.** > 100 µM

**Q.** What about the TGI [4] of the same compound?
**A.** > 100 µM

**Q.** And the TGI [6]?
**A.** 37.1 µM

**Q.** And the TGI [7]?
**A.** 33 µM

**Q.** For CCc1cccc(C)c1NC(=O)CCc1nnc2s/c(=C\c3cccc4ccccc34)c(=O)n12, which TGI [1] is on record?
**A.** > 100 µM

**Q.** What about the TGI [3] of the same compound?
**A.** > 100 µM

**Q.** And the TGI [4]?
**A.** > 100 µM

**Q.** And the TGI [5]?
**A.** > 100 µM

**Q.** And the TGI [6]?
**A.** > 100 µM

**Q.** And the TGI [7]?
**A.** > 100 µM

**Q.** For CC(=O)NC(CCCCN)C(=O)NCc1ccccc1 (centres undefined), which TGI [1] is on record?
**A.** > 100 µM

**Q.** What about the TGI [2] of the same compound?
**A.** > 100 µM

**Q.** And the TGI [3]?
**A.** > 100 µM

**Q.** And the TGI [5]?
**A.** > 100 µM

**Q.** What about the TGI [6] of the same compound?
**A.** > 100 µM

**Q.** And the TGI [7]?
**A.** > 100 µM

**Q.** Which results are given for CC(C)(O)/C=C/C(=O)[C@](C)(O)[C@H]1[C@H](O)C[C@@]2(C)[C@@H]3CC=C4[C@@H](C[C@H](O)C(=O)C4(C)C)[C@]3(C)C(=O)C[C@]12C?
**A.** GI50 [1]: 0.224 µM; TGI [1]: 16.5 µM; GI50 [2]: 0.477 µM; TGI [2]: 0.833 µM and 3.47 µM; GI50 [3]: 0.371 µM and 0.647 µM; TGI [3]: 8.67 µM; TGI [4]: 0.687 µM and 1.68 µM; TGI [5]: 0.631 µM and 0.807 µM; GI50 [6]: 0.028 µM; TGI [6]: 0.0828 µM and 0.432 µM; TGI [7]: 0.598 µM and 2.81 µM

**Q.** For [O-][N+]1(CC[N+]2([O-])CCCCC2)CCCCC1, which TGI [1] is on record?
**A.** > 100 µM

**Q.** What about the TGI [8] of the same compound?
**A.** > 100 µM

**Q.** What about the TGI [2] of the same compound?
**A.** > 100 µM

**Q.** What about the TGI [4] of the same compound?
**A.** > 100 µM

**Q.** What about the TGI [10] of the same compound?
**A.** > 100 µM

**Q.** And the TGI [9]?
**A.** > 100 µM

**Q.** What about the TGI [5] of the same compound?
**A.** > 100 µM

**Q.** And the TGI [6]?
**A.** > 100 µM

**Q.** Which results are given for O=c1cccccc1NCCCCCCCNc1cccccc1=O?
**A.** TGI [1]: > 100 µM; TGI [2]: > 100 µM; TGI [4]: 30 µM; TGI [5]: > 100 µM; TGI [7]: 45.7 µM

**Q.** How did the GI50 [1] turn out when COc1ccc2c(c1OC)-c1c(c3ccc([N+](=O)[O-])cc3c(=O)n1CCCBr)C2=O was run?
**A.** 42.4 µM

**Q.** What about the TGI [1] of the same compound?
**A.** > 100 µM

**Q.** And the GI50 [2]?
**A.** > 100 µM

**Q.** What about the TGI [2] of the same compound?
**A.** > 100 µM

**Q.** What about the GI50 [10] of the same compound?
**A.** 55 µM

**Q.** And the TGI [10]?
**A.** > 100 µM

**Q.** What about the GI50 [9] of the same compound?
**A.** 18.1 µM

**Q.** What about the TGI [9] of the same compound?
**A.** > 100 µM

**Q.** What about the GI50 [7] of the same compound?
**A.** > 100 µM

**Q.** And the TGI [7]?
**A.** > 100 µM
